From US20080118494A1, “Compositions For Detection Of Latent Hiv Reactivation And Methods Of Using The Same” (priority 2004, published 2008)

System: latent HIV-1 infection in human PBMCs
Assay: Reactivation of latent HIV-1 in in vitro infected, EGFP-negative sorted human PBMCs
Assay type: cell-based
Details: representative donor, 24 h post stimulation, untreated background 0.23%
Description: PBMCs from three different donors were infected with HIV-1 NLENG1-IRES and on day three post infection were treated with indinavir to inhibit de novo infection. On day seven following infection, HIV-1 expressing EGFP^+ cells were removed from the cultures using fluorescence activated cell sorting. (A) Following the sorting procedure, the EGFP-negative cells were cultured in supplemented RPMI 1640 to determine levels of spontaneous reactivation (Control), stimulated with anti-CD3 antibody clone UCHT1 (CD3), the costimulatory anti-CD28 antibody clone CD28.2 (cCD28) and with a combination of these two antibodies (cCD28/CD3). […] Numbers indicate the percentage of EGFP positive cells and the mean channel fluorescence intensity of the EGFP-positive cell population. […]
In vitro generation and analysis of HIV-1 latency in PBMCs. […] In the absence of IL-2, the cells were cultured for seven days following infection and then subjected to fluorescence activated cell sorting (FACS) to remove EGFP positive, HIV-1 expressing cells. The EGFP negative cell fraction was then activated with the indicated stimuli and reactivation of latent HIV-1 expression was measured 24 h post stimulation by determining EGFP fluorescence using FACS analysis. […]

With CCCCCCCCCCCCCC(=O)O[C@@H]1[C@@H](C)[C@@]2(O)[C@@H](C=C(CO)C[C@]3(O)C(=O)C(C)=C[C@@H]23)[C@@H]2C(C)(C)[C@]12OC(C)=O [PMA, 13-phorbol-12-myristate acetate] the “HIV-1 reactivation as percentage of EGFP+ cells” value was 0.60%.
